Molecules are shown by their SMILES.

The experiment deals with human H3 receptor (Homo sapiens, UniProt Q9Y5N1). In words: cAMP quantification assay for human H3 receptor (DiscoveRx cAMP XS+).
Chain of human H3 receptor (Q9Y5N1 whole entry): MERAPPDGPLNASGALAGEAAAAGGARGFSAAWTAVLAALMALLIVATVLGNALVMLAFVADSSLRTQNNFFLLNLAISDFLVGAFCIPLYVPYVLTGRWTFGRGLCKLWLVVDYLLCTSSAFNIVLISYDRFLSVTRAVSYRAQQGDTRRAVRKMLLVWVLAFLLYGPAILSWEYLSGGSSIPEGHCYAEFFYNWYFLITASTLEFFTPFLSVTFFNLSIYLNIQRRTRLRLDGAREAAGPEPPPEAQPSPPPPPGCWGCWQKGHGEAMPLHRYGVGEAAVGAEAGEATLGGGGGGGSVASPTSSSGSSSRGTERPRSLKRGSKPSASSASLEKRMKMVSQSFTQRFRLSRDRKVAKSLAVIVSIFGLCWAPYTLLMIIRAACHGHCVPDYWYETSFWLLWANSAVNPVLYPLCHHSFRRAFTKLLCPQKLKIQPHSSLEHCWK

Broadly, the IC50 is the point on the concentration scale where inhibition reaches its midpoint. `O=C(c1ccc(OC2CCOCC2)cc1)N1CC(C(=O)N2CCCN(C3CCC3)CC2)C1` [Example 11, 1-cyclobutyl-4-[(1-{[4-(tetrahydro-2H-pyran-4-yloxy)phenyl]carbonyl}azetidin-3-yl)carbonyl]-1,4-diazepane] came in with an IC50 below 50 nM.

Take `COC(=O)c1ccc(C(=O)N2CC(C(=O)N3CCCN(C4CCC4)CC3)C2)cn1` [Example 7, methyl 5-({3-[(4-cyclobutyl-1,4-diazepan-1-yl)carbonyl]azetidin-1-yl}carbonyl)pyridine-2-carboxylate]: the IC50 is below 50 nM.

Values taken from patent publication US8912176B2 (Evotec AG, priority 2009, dated 2014).
